Test results as given in patent US20130072523A1, “ANALOGUES FOR THE TREATMENT OR PREVENTION OF FLAVIVIRUS INFECTIONS” (VERTEX PHARMACEUTICALS INCORPORATED, priority 2009, published 2013).

The molecules below were run on HCV 1b genotype (assay: Cell-based luciferase reporter HCV (Ib) RNA replication assay (Huh-ET replicon cells)). Conditions: Hepatitis C virus, 96 h; HCV 1b genotype replicon, 4 days incubation, luciferase readout.
Text: Cell-Based Luciferase Reporter HCV (Ib) RNA Replication Assay Cell Culture
Replicon cell lines Huh-5.2 are derived from the Huh-7 hepatocarcinoma cell line are maintained in culture as generally described in Krieger, N; Lohmann, V; Bartenschlager, R. Enhancement of hepatitis C virus RNA replication by cell culture-adaptive mutations. J. Virol. 2001, 75, 4614-4624. The Huh-5.2 cells contain the highly cell culture-adapted replicon I389 Luc-ubi-neo/NS3-375.1 construct that carries, in addition to the neomycin gene, an integrated copy to the firefly luciferase gene (Krieger, N; Lohmann, V; Bartenschlager, R. Enhancement of hepatitis C virus RNA replication by cell culture-adaptive mutations. J. Virol. 2001, 75, 4614-4624). This cell line allows measurement of HCV RNA replication and translation by measuring luciferase activity. It has been previously shown that the luciferase activity tightly follows the replicon RNA level in these cells (Krieger, N; Lohmann, V; Bartenschlager, R. Enhancement of hepatitis C virus RNA replication by cell culture-adaptive mutations. J. Virol. 2001, 75, 4614-4624). The Huh-ET cell line has the same features as those mentioned for Huh-5.2 cell line, except that ET cells are more robust and contain an adaptative mutation in the HCV NS4B gene instead of NS5A. Both cell lines are maintained in cultures at a sub-confluent level (<85%) as the level of replicon RNA is highest in actively proliferating cells. The culture media used for cell passaging consist of DMEM (Gibco BRL Laboratories, Mississauga, ON, Canada) supplemented with 10% foetal bovine serum with 1% penicilin/streptomycin, 1% glutamine, 1% sodium pyruvate, 1% non-essential amino acids, and 180 μg/ml of G418 final concentration. Cells are incubated at 37° C., in an atmosphere of 5% CO2 and passaged twice a week to maintain sub-confluence.
Approximately 3000 viable Huh-ET cells (100 μl) are plated per well in a white opaque 96-well microtiter plate. The cell culture media used for the assay is the same as described above except that it contains no G418 and no phenol red. After an incubation period of 3-4 hours at 37° C. in a 5% CO2 incubator, compounds (100 μl) are added at various concentrations. Cells are then further incubated for 4 days at 37° C. in a 5% CO2 incubator. Thereafter, the culture media is removed and cells are lysed by the addition of 95 μL of the luciferase buffer (luciferin substrate in buffered detergent). Cell lysates are incubated at room temperature and protected from direct light for at least 10 minutes. Plates are read for luciferase counts using a luminometer (Wallac MicroBeta Trilux, Perkin Elmer™, MA, USA).
The 50% inhibitory concentrations (IC50s) for inhibitory effect are determined from dose response curves using eleven concentrations per compound in duplicate. Curves are fitted to data points using nonlinear regression analysis, and IC50s are interpolated from the resulting curve using GraphPad Prism software, version 2.0 (GraphPad Software Inc., San Diego, Calif., USA).
EC50 ranges are presented in micromolar as follows: μM+++<=0.005<++<=5.0<+.
For `COC(=O)N[C@H](C(=O)N1C[C@@H](C)C[C@H]1c1ncc(C#Cc2ccc(C#Cc3cnc([C@@H]4C[C@H](CO)CN4C(=O)[C@@H](NC(=O)OC)C(C)C)[nH]3)cc2)[nH]1)C(C)C` [Compound 64], the IC50 was at most 5 nM.
For `COC(=O)N[C@H](C(=O)N1C[C@@H](C)C[C@H]1c1ncc(C#Cc2ccc(C#Cc3cnc([C@@H]4C[C@H](C)CN4C(=O)[C@@H](NC(=O)OC)C(C)C)[nH]3)c3nsnc23)[nH]1)C(C)C` [Compound 40], the IC50 was at most 5 nM.
`COC(=O)N[C@H](C(=O)N1C[C@@H](C)C[C@H]1c1nc(-c2cc3sc(-c4c[nH]c([C@@H]5C[C@H](C)CN5C(=O)[C@@H](NC(=O)OC)C(C)C)n4)cc3s2)c[nH]1)C(C)C` [Compound 26] was tested, and the IC50 was at most 5 nM.
Work on `COC(=O)N[C@H](C(=O)N1C[C@@H](C)C[C@H]1c1nc(C#Cc2ccc3cc(C#Cc4c[nH]c([C@@H]5C[C@H](C)CN5C(=O)[C@@H](NC(=O)OC)C(C)C)n4)sc3c2)c[nH]1)C(C)C` [Compound 67] yielded an IC50 of at most 5 nM.
In the case of `COC(=O)N[C@H](C(=O)N1C[C@H](C)C[C@H]1c1ncc(C#Cc2ccc(C#Cc3cnc([C@@H]4C[C@H](C)CN4C(=O)[C@@H](NC(=O)OC)C(C)C)[nH]3)cc2)[nH]1)C(C)C` [Compound 38], the IC50 is reported as at most 5 nM.
For `COC(=O)N[C@H](C(=O)N1C[C@@H](OC)C[C@H]1c1ncc(C#Cc2ccc(C#Cc3cnc([C@@H]4C[C@H](OC)CN4C(=O)[C@@H](NC(=O)OC)C(C)C)[nH]3)cc2)[nH]1)C(C)C` [Compound 68], the IC50 was at most 5 nM.
`COC(=O)N[C@@H](C(=O)N1C[C@@H](C)C[C@H]1c1ncc(C#Cc2ccc(C#Cc3cnc([C@@H]4C[C@H](C)CN4C(=O)[C@H](NC(=O)OC)C(C)C)[nH]3)cc2)[nH]1)C(C)C` [Compound 32] showed an IC50 of 5 to 5000 nM.
For `C[C@@H]1CN[C@H](c2ncc(C#Cc3ccc(C#Cc4cnc([C@@H]5C[C@H](C)CN5)[nH]4)cc3)[nH]2)C1` [Compound 24], the IC50 was 5 to 5000 nM.
With `COC(=O)N[C@H](C(=O)N1C[C@@H](C)C[C@@H]1c1ncc(C#Cc2ccc(C#Cc3cnc([C@@H]4C[C@@H](C)CN4C(=O)[C@@H](NC(=O)OC)C(C)C)[nH]3)cc2)[nH]1)C(C)C` [Compound 27] the IC50 was 5 to 5000 nM.
`COC(=O)N[C@H](C(=O)N1C[C@@H](C)C[C@H]1c1nc(C)c(C#Cc2ccc3cc(C#Cc4[nH]c([C@@H]5C[C@H](C)CN5C(=O)[C@@H](NC(=O)OC)C(C)C)nc4C)ccc3c2)[nH]1)C(C)C` [Compound 37] showed an IC50 of at most 5 nM.
Work on `COC(=O)N(C)[C@H](C(=O)N1C[C@@H](C)C[C@H]1c1ncc(C#Cc2ccc(C#Cc3cnc([C@@H]4C[C@H](C)CN4C(=O)[C@H](C(C)C)N(C)C(=O)OC)[nH]3)cc2)[nH]1)C(C)C` [Compound 11] yielded an IC50 of at most 5 nM.
Work on `COC(=O)N[C@H](C(=O)N1CCC[C@H]1c1nc(C#Cc2cc3sc(C#Cc4c[nH]c([C@@H]5CCCN5C(=O)[C@@H](NC(=O)OC)C(C)C)n4)cc3s2)c[nH]1)C(C)C` [Compound 14] yielded an IC50 of at most 5 nM.
`COC(=O)N[C@H](C(=O)N1C[C@@H](C)C[C@H]1c1nc(C#Cc2ccc3sc(C#Cc4c[nH]c([C@@H]5C[C@H](C)CN5C(=O)[C@@H](NC(=O)OC)C(C)C)n4)cc3c2)c[nH]1)C(C)C` [Compound 61] gave an IC50 of at most 5 nM.
With `COC(=O)N[C@H](C(=O)N1C[C@@H](C)C[C@H]1c1ncc(C#Cc2ccc(C#Cc3cnc([C@@H]4C[C@H](C)CN4C(=O)[C@@H](NC(=O)OC)C(C)C)[nH]3)nc2)[nH]1)C(C)C` [Compound 56] the IC50 was at most 5 nM.
`COC(=O)N[C@H](C(=O)N1C[C@@H](C)C[C@H]1c1ncc(C#Cc2ccc(C#Cc3cnc([C@@H]4C[C@H](C)CN4C(=O)[C@H](C(C)C)N(C)C(=O)OC)[nH]3)cc2)[nH]1)C(C)C` [Compound 12] showed an IC50 of at most 5 nM.
For `COC(=O)N[C@H](C(=O)N1C[C@@H](C)C[C@H]1c1ncc(-c2ccc(-c3[nH]c([C@@H]4C[C@H](C)CN4C(=O)[C@@H](NC(=O)OC)C(C)C)nc3-c3cc4sccc4s3)cc2)[nH]1)C(C)C` [Compound 58], the IC50 was at most 5 nM.
Molecule `[2H]c1c([2H])c(C#Cc2cnc([C@@H]3C[C@H](C)CN3C(=O)[C@@H](NC(=O)OC)C(C)C)[nH]2)c([2H])c([2H])c1C#Cc1cnc([C@@H]2C[C@H](C)CN2C(=O)[C@@H](NC(=O)OC)C(C)C)[nH]1` [Compound 5] has an IC50 of at most 5 nM.
`COC(=O)N[C@H](C(=O)N1C[C@@H](C)C[C@H]1c1nc(C#Cc2ccc(C#Cc3c[nH]c([C@@H]4C[C@H](C)CN4C(=O)[C@@H](NC(=O)OC)C(C)C)n3)s2)c[nH]1)C(C)C` [Compound 60] gave an IC50 of at most 5 nM.
In the case of `[2H]C([2H])([2H])C([2H])(C([2H])([2H])[2H])[C@@]([2H])(NC(=O)OC)C(=O)N1C[C@@H](C)C[C@H]1c1ncc(C#Cc2ccc(C#Cc3cnc([C@@H]4C[C@H](C)CN4C(=O)[C@@H](NC(=O)OC)C(C)C)[nH]3)cc2)[nH]1` [Compound 44], the IC50 is reported as at most 5 nM.
For `COC(=O)N[C@H](C(=O)N1C[C@H](C)C[C@H]1c1nc(C#Cc2ccc(C#Cc3c[nH]c([C@@H]4C[C@@H](C)CN4C(=O)[C@@H](NC(=O)OC)C(C)C)n3)cc2)c[nH]1)C(C)C` [Compound 9], the IC50 was at most 5 nM.
`COC(=O)N[C@H](C(=O)N1C[C@@H](C)C[C@H]1c1ncc(C#Cc2ccc(C#Cc3cnc([C@@H]4C[C@H](C)CN4C(=O)OC(C)(C)C)[nH]3)cc2)[nH]1)C(C)C` [Compound 54] showed an IC50 of at most 5 nM.
`COC(=O)N[C@H](C(=O)N1C[C@@H](C)C[C@@H]1c1ncc(C#Cc2ccc(C#Cc3cnc([C@@H]4C[C@H](C)CN4C(=O)[C@@H](NC(=O)OC)C(C)C)[nH]3)cc2)[nH]1)C(C)C` [Compound 52] showed an IC50 of 5 to 5000 nM.
`COC(=O)N[C@H](C(=O)N1C[C@@H](C)C[C@H]1c1nc(C#CC#Cc2c[nH]c([C@@H]3C[C@H](C)CN3C(=O)[C@@H](NC(=O)OC)C(C)C)n2)c[nH]1)C(C)C` [Compound 53] was tested, and the IC50 was at most 5 nM.
For `COC(=O)N[C@H](C(=O)N1[C@@H](C)CC[C@H]1c1ncc(C#Cc2ccc(C#Cc3cnc([C@@H]4CC[C@H](C)N4C(=O)[C@@H](NC(=O)OC)C(C)C)[nH]3)cc2)[nH]1)C(C)C` [Example 42], the IC50 was at most 5 nM.
In the case of `C[C@H]1C[C@@H](c2ncc(-c3ccc(-c4ccc(-c5cnc([C@@H]6C[C@H](C)CN6C(=O)OC(C)(C)C)[nH]5)s4)cc3)[nH]2)N(C(=O)OC(C)(C)C)C1` [Compound 65], the IC50 is reported as 5 to 5000 nM.
`COC(=O)N[C@H](C(=O)N1C[C@@H](C)C[C@H]1c1ncc(C#Cc2ccc(C#Cc3cnc([C@@H]4C[C@H](C)CN4C(=O)[C@@H](NC(=O)OC)C(C)C)[nH]3)c3c2OC(F)(F)O3)[nH]1)C(C)C` [Compound 45] gave an IC50 of at most 5 nM.
Work on `COC(=O)N[C@H](C(=O)N1C[C@@H](C)C[C@H]1c1nc(C)c(C#Cc2cc(F)c(C#Cc3[nH]c([C@@H]4C[C@H](C)CN4C(=O)[C@@H](NC(=O)OC)C(C)C)nc3C)cc2F)[nH]1)C(C)C` [Compound 29] yielded an IC50 of at most 5 nM.
`CC[C@H]1C[C@@H](c2ncc(C#Cc3ccc(C#Cc4cnc([C@@H]5C[C@H](CC)CN5C(=O)[C@@H](NC(=O)OC)C(C)C)[nH]4)cc3)[nH]2)N(C(=O)[C@@H](NC(=O)OC)C(C)C)C1` [Compound 41] showed an IC50 of at most 5 nM.
`COC(=O)N[C@H](C(=O)N1CCC[C@H]1c1nc(C#CC#Cc2c[nH]c([C@@H]3CCCN3C(=O)[C@@H](NC(=O)OC)C(C)C)n2)c[nH]1)C(C)C` [Compound 15] showed an IC50 of 5 to 5000 nM.
For `COC(=O)N[C@H](C(=O)N1CC(C)(C)C[C@H]1c1ncc(C#Cc2ccc(C#Cc3cnc([C@@H]4CC(C)(C)CN4C(=O)[C@@H](NC(=O)OC)C(C)C)[nH]3)cc2)[nH]1)C(C)C` [Example 43], the IC50 was at most 5 nM.
